Test results reported in PubChem BioAssay AID330 (DTP/NCI, 2004).
“And” between values parts separate entries of the source, which are not always exact repeats. Identical values can stand only once. Inconclusive results and toxic doses are left out. How the source made its calls: active means survival T/C of 150% or more; inactive means T/C below 125% in these data.

Test system: P388 leukemia ip, CD2F1 mice, survival T/C
Assay: NCI In Vivo Anticancer Drug Screen. Data for tumor model P388 Leukemia (intraperitoneal) in CD2F1 (CDF1) mice
Settings: endpoint: median survival time, higher = longer survival
In short: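 Mice carrying the transplanted tumor received test compound or vehicle. Survival was recorded in each group, and the value is the treated-group measurement divided by that of the vehicle-treated control group.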

[1] = dose: 50.0 mg/kg/injection, schedule: Q01DX009 (ip), vehicle: Klucel (hydroxypropylcellulose) (HPC)
[2] = dose: 100.0 mg/kg/injection, schedule: Q01DX009 (ip), vehicle: Klucel (hydroxypropylcellulose) (HPC)
[3] = dose: 200.0 mg/kg/injection, schedule: Q01DX009 (ip), vehicle: Klucel (hydroxypropylcellulose) (HPC)

Measured: T/C

[N-]=[N+]=NC(=O)Nc1cccc(C(F)(F)F)c1
inactive: dose: 15.0 mg/kg/injection, schedule: Q01DX005 (ip), vehicle: Klucel + Tween-80 103 % of control | dose: 30.0 mg/kg/injection, schedule: Q01DX005 (ip), vehicle: Klucel + Tween-80 96 % of control | dose: 60.0 mg/kg/injection, schedule: Q01DX005 (ip), vehicle: Klucel + Tween-80 100 % of control and 93 % of control

CCCCCCCCCCCCCC[n+]1ccc(C(N)=O)cc1
inactive: dose: 6.25 mg/kg/injection, schedule: Q01DX009 (ip), vehicle: saline with Tween-80 113 % of control | dose: 12.5 mg/kg/injection, schedule: Q01DX009 (ip), vehicle: saline with Tween-80 109 % of control | dose: 25.0 mg/kg/injection, schedule: Q01DX009 (ip), vehicle: saline with Tween-80 100 % of control

CCN=C1SC2C(=O)N(C)C(S1)C(=O)N2C
inactive: dose: 6.25 mg/kg/injection, schedule: Q04DX002 (ip), vehicle: saline 100 % of control | dose: 12.5 mg/kg/injection, schedule: Q04DX002 (ip), vehicle: saline 103 % of control | dose: 25.0 mg/kg/injection, schedule: Q04DX002 (ip), vehicle: saline 105 % of control

Cc1ccc(S(=O)(=O)C(Cl)(SOCc2ccccc2)Sc2ccccc2)cc1 (centres undefined)
inactive: [1] 109 % of control | [2] 100 % of control | [3] 114 % of control

C[N+](C)(C)C.O=C([CH-]C(=O)C(F)(F)F)c1ccccc1.O=C([CH-]C(=O)C(F)(F)F)c1ccccc1.O=C([CH-]C(=O)C(F)(F)F)c1ccccc1.O=C([CH-]C(=O)C(F)(F)F)c1ccccc1.[Eu+3]
inactive: dose: 25.0 mg/kg/injection, schedule: Q01DX009 (ip), vehicle: Klucel (hydroxypropylcellulose) (HPC) 99 % of control | [1] 106 % of control and 113 % of control | dose: 50.0 mg/kg/injection, schedule: Q01DX009 (ip), vehicle: saline with Tween-80 103 % of control | [2] 112 % of control and 117 % of control | dose: 100.0 mg/kg/injection, schedule: Q01DX009 (ip), vehicle: saline with Tween-80 99 % of control | [3] 113 % of control

OC1COC(O)(CN2CCOCC2)C(O)C1O (centres undefined)
inactive: dose: 50.0 mg/kg/injection, schedule: Q01DX005 (ip), vehicle: saline with Tween-80 100 % of control | dose: 100.0 mg/kg/injection, schedule: Q01DX005 (ip), vehicle: saline with Tween-80 98 % of control | dose: 200.0 mg/kg/injection, schedule: Q01DX005 (ip), vehicle: saline with Tween-80 97 % of control

CC1(C)C(C)(C)C1(Cl)S(C)(=O)=O
inactive: dose: 100.0 mg/kg/injection, schedule: Q04DX003 (ip), vehicle: saline with Tween-80 101 % of control | dose: 200.0 mg/kg/injection, schedule: Q04DX003 (ip), vehicle: saline with Tween-80 106 % of control | dose: 400.0 mg/kg/injection, schedule: Q04DX003 (ip), vehicle: saline with Tween-80 106 % of control
